Results: the NIST ThermoML archive (doi:10.1016/j.fluid.2010.10.028)

Assay: xn = mol fraction of the nth substance listed
Conditions: Liquid, Vibrating tube method

CC(C)=O [acetone] + CCCCCCC
Conditions	mass density [kg/m3]
407.22 K, 24840 kPa, x1 = 0.492	637.87
407.22 K, 24850 kPa, x1 = 0.611	645.53
407.22 K, 24850 kPa, x1 = 0.801	663.77
407.22 K, 29850 kPa, x1 = 0.492	645.2
407.22 K, 29860 kPa, x1 = 0.801	671.47
407.22 K, 29870 kPa, x1 = 0.611	653.05
407.22 K, 34850 kPa, x1 = 0.801	678.52
407.22 K, 34860 kPa, x1 = 0.611	659.9
407.22 K, 39850 kPa, x1 = 0.801	685.05
407.22 K, 39860 kPa, x1 = 0.611	666.23
407.22 K, 44860 kPa, x1 = 0.801	691.11
407.22 K, 44870 kPa, x1 = 0.611	672.1
407.22 K, 49870 kPa, x1 = 0.611	677.58
407.22 K, 54850 kPa, x1 = 0.611	682.71
407.22 K, 59830 kPa, x1 = 0.611	687.58
407.22 K, 59840 kPa, x1 = 0.492	679.01
407.22 K, 59840 kPa, x1 = 0.801	707.14
407.22 K, 64930 kPa, x1 = 0.611	692.3
407.22 K, 69830 kPa, x1 = 0.801	716.45
407.22 K, 69920 kPa, x1 = 0.611	696.69
407.22 K, 74910 kPa, x1 = 0.611	700.88
407.22 K, 74920 kPa, x1 = 0.801	720.89
407.22 K, 79900 kPa, x1 = 0.611	704.88
407.22 K, 79920 kPa, x1 = 0.801	725.05
407.22 K, 84880 kPa, x1 = 0.611	708.71
407.22 K, 84890 kPa, x1 = 0.801	729.04
407.22 K, 89850 kPa, x1 = 0.611	712.41
407.22 K, 89860 kPa, x1 = 0.492	703.26
407.22 K, 89890 kPa, x1 = 0.801	732.88
407.22 K, 94740 kPa, x1 = 0.4	750.92
407.22 K, 94740 kPa, x1 = 0.8992	750.92
407.22 K, 94840 kPa, x1 = 0.611	715.96
407.22 K, 94870 kPa, x1 = 0.801	736.56
407.22 K, 99720 kPa, x1 = 0.4	754.58
407.22 K, 99720 kPa, x1 = 0.8992	754.58
407.22 K, 99820 kPa, x1 = 0.611	719.38
407.22 K, 99840 kPa, x1 = 0.801	740.12
407.22 K, 104690 kPa, x1 = 0.4	758.09
407.22 K, 104690 kPa, x1 = 0.8992	758.09
407.22 K, 104790 kPa, x1 = 0.611	722.68
407.22 K, 104820 kPa, x1 = 0.801	743.55
407.22 K, 109650 kPa, x1 = 0.4	761.5
407.22 K, 109650 kPa, x1 = 0.8992	761.5
407.22 K, 109770 kPa, x1 = 0.492	716.44
407.22 K, 109790 kPa, x1 = 0.801	746.89
407.22 K, 109860 kPa, x1 = 0.611	725.93
407.22 K, 114620 kPa, x1 = 0.4	764.8
407.22 K, 114620 kPa, x1 = 0.8992	764.8
407.22 K, 114770 kPa, x1 = 0.801	750.12
407.22 K, 114860 kPa, x1 = 0.492	719.55
407.22 K, 114870 kPa, x1 = 0.611	729.06
407.22 K, 119590 kPa, x1 = 0.4	768
407.22 K, 119590 kPa, x1 = 0.8992	768
407.22 K, 119840 kPa, x1 = 0.492	722.47
407.22 K, 119840 kPa, x1 = 0.801	753.32
407.22 K, 119850 kPa, x1 = 0.611	732.05
407.22 K, 124560 kPa, x1 = 0.4	771.11
407.22 K, 124560 kPa, x1 = 0.8992	771.11
407.22 K, 124850 kPa, x1 = 0.492	725.34
407.22 K, 124850 kPa, x1 = 0.611	735.01
407.22 K, 124850 kPa, x1 = 0.801	756.37
407.22 K, 129820 kPa, x1 = 0.4	774.33
407.22 K, 129820 kPa, x1 = 0.8992	774.33
407.22 K, 129840 kPa, x1 = 0.611	737.84
407.22 K, 129840 kPa, x1 = 0.801	759.34
407.23 K, 4820 kPa, x1 = 0.7024	611.92
407.23 K, 9850 kPa, x1 = 0.492	610.28
407.23 K, 14860 kPa, x1 = 0.492	620.71
407.23 K, 19860 kPa, x1 = 0.492	629.81
407.23 K, 24820 kPa, x1 = 0.7024	653.51
407.23 K, 29820 kPa, x1 = 0.7024	661.13
407.23 K, 34840 kPa, x1 = 0.492	651.87
407.23 K, 39860 kPa, x1 = 0.492	658.08
407.23 K, 44850 kPa, x1 = 0.492	663.81
407.23 K, 49840 kPa, x1 = 0.801	696.75
407.23 K, 49850 kPa, x1 = 0.492	669.19
407.23 K, 54850 kPa, x1 = 0.801	702.09
407.23 K, 54860 kPa, x1 = 0.492	674.25
407.23 K, 64830 kPa, x1 = 0.492	683.5
407.23 K, 64830 kPa, x1 = 0.801	711.9
407.23 K, 69930 kPa, x1 = 0.492	687.88
407.23 K, 74910 kPa, x1 = 0.492	691.98
407.23 K, 79890 kPa, x1 = 0.492	695.9
407.23 K, 84870 kPa, x1 = 0.492	699.66
407.23 K, 94840 kPa, x1 = 0.492	706.73
407.23 K, 99820 kPa, x1 = 0.492	710.09
407.23 K, 104790 kPa, x1 = 0.492	713.3
407.23 K, 129830 kPa, x1 = 0.492	728.11
407.24 K, 1620 kPa, x1 = 0.7024	602.1
407.24 K, 9830 kPa, x1 = 0.7024	624.8
407.24 K, 14840 kPa, x1 = 0.7024	635.66
